Results reported in patent US20250326744A1, “PIPERAZINE DERIVATIVE OR SALT THEREOF, AND PHARMACEUTICAL COMPOSITION” (priority 2022, published 2025).
Counter-ions that a name gives are not always drawn.

Tests used:
[1] = tested on: mexY (EC) strain; test: Efflux ability inhibition effect on drug efflux pump MexY (Test Examples 1 and 3): proliferation (OD595) of mexY (EC) strain with EM or LVFX at 1/4 MIC, EC75; assay type: cell-based, Escherichia coli; details: Table 51, Test Example 1, 16 to 20 hours culture, OD595
Experimental: The efflux ability inhibition effect of the test compound on the drug efflux pump was evaluated using the bacterial proliferative ability in the presence of EM or LVFX as an index.
EM is a macrolide antibacterial agent and is a drug that is discharged outside the bacteria by MexB and MexY LVFX is a quinolone antibacterial agent and is a drug that is discharged outside the bacteria by MexB and MexY In a case where the test compound has an efflux ability inhibitory ability against the drug efflux pump, the proliferation of bacteria is suppressed by the combined use of EM or LVFX and the test compound, as compared with the case where EM or LVFX is used alone.
A mutant strain (hereinafter, referred to as an “mexB (EC) strain”) obtained by transferring the genes of the main multidrug efflux system MexAB-OprM of Pseudomonas aeruginosa described in Nature, 2013, Vol. 500, pp. 102 to 106 as a plasmid into Escherichia coli strains in which the acrB and tolC genes of the multidrug efflux system AcrAB-TolC were deleted as described in Journal of Infection and Chemotherapy 2008, Vol. 14, pp. 23 to 29, and a gene transfer strain (hereinafter, referred to as an “mexY (EC) strain”) of another main multidrug efflux system MexXY-OprM of Pseudomonas aeruginosa were used for the evaluation of test compounds.
In the mexB (EC) strain, an expression level of MexB of the drug efflux pump is accelerated, and in the mexY (EC) strain, an expression level of MexY of the drug efflux pump is accelerated.
For culturing each Escherichia coli strain, a 96-well plate (amount of culture medium per well: 100 μL) was used and Luria-Bertani broth (LB) culture medium was used. The inoculation amount of the bacteria was set to 10^4 to 5 CFU/well.
The mexB (EC) strain and the mexY (EC) strain were cultured for 16 to 20 hours in a culture medium to which EM or LVFX and test compounds at various concentrations (0 to 800 μM) were added, and the proliferation of the bacterial strains was evaluated by optical turbidity at 595 nm (OD595). The concentration of the antibacterial agents (EM and LVFX) in the culture medium were each set to ¼ of the minimum inhibitory concentration (MIC) (hereinafter, referred to as ¼ MIC) of the single antibacterial agent.
The proliferation of bacteria in a case where the antibacterial agent was added at the concentration of ¼ MIC in a case where the test compound was not added was measured, and compared with the proliferation of bacteria in a case where the test compound was contained, and the lowest concentration of the test compound at which the proliferation was inhibited by 75% or more was defined as the drug efflux pump inhibitory ability of the test compound as 75% inhibitory effect concentration (EC75).
The drug efflux pump inhibitory ability of each test compound in a case of being used in combination with the antibacterial agent against the mexB (EC) strain and the mexY (EC) strain was evaluated as follows according to the value of EC75. • S: EC75≤[…] • A: 12.5 μM<EC75≤25 μM • B: 25 μM<EC75≤100 μM • C: […]
In the same manner as in Test Example 1, the efflux ability inhibition effect of the test compound on the drug efflux pump was evaluated using the bacterial proliferation ability in the presence of EM or LVFX as an index.

[2] = tested on: mexB (PA) strain; test: Combinational effect with antibacterial agent against Pseudomonas aeruginosa (Test Examples 2 and 4): mexB (PA) strain with LVFX, TC or AZT at 1/4 MIC, EC99; assay type: cell-based; details: mexB (PA) strain, Test Example 4; for EC99, combinational effect with AZT, mexB (PA): combined with AZT at 1/4 MIC; for EC99, combinational effect with LVFX, mexB (PA): combined with LVFX at 1/4 MIC; for EC99, combinational effect with TC, mexB (PA): combined with TC at 1/4 MIC
In short: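 P. aeruginosa mexB (PA) strain, lacking MexCD-OprJ, MexEF-OprN and MexXY and overexpressing MexAB-OprM, grown 16–20 h in CAMHB (10^4–5 CFU/well) with LVFX, TC or AZT at ¼ MIC plus test compound at 0–800 μM. Growth read as OD595; EC99 is the lowest compound concentration giving ≥99% growth inhibition.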

[3] = tested on: S-3769 strain; test: Combinational effect with antibacterial agent against Pseudomonas aeruginosa (Test Examples 2 and 4): S-3769 strain with AMK or GM at 1/4 MIC, EC99; assay type: cell-based; details: S-3769 strain, Test Example 4; for EC99, combinational effect with AMK, S-3769 strain: combined with AMK at 1/4 MIC; for EC99, combinational effect with GM, S-3769 strain: combined with GM at 1/4 MIC
In short: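 P. aeruginosa S-3769 (clinical isolate, MexY overexpressed) grown 16–20 h in CAMHB, 10^4 to 5 CFU/well, with AMK or GM at ¼ MIC plus test compound 0–800 μM. Growth read as OD595; EC99 is the lowest compound concentration giving ≥99% growth inhibition.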

Row | Structure (SMILES) | EC75, mexY (EC) strain, EM ([1]; combined with EM at 1/4 MIC) | EC75, mexY (EC) strain, LVFX ([1]; combined with LVFX at 1/4 MIC) | EC99, combinational effect with AZT, mexB (PA) [2] | EC99, combinational effect with LVFX, mexB (PA) [2] | EC99, combinational effect with TC, mexB (PA) [2] | EC99, combinational effect with AMK, S-3769 strain [3] | EC99, combinational effect with GM, S-3769 strain [3]
1 | CCOc1cccc(F)c1CN1CCN(C(=O)[C@H](N)C2CCN(CCn3c(=O)ccc4ncc(F)cc43)CC2)CC1 [Example 14, Hydrobromide of (R)-1-(2-(4-(1-amino-2-(4-(2-ethoxy-6-fluorobenzyl)piperazin-1-yl)-2-oxoethyl)piperidin-1-yl)ethyl)-7-fluoro-1,5-naphthyridin-2(1H)-one] | B (25 μM<EC75≤100 μM) | B (25 μM<EC75≤100 μM) | – | – | – | – | –
2 | CCSc1cc(F)ccc1CN1CCN(C(=O)[C@H](N)C2CCN(CCc3cc(Cl)ccc3-c3cc(O)ccc3F)CC2)CC1 [Example 615, (R)-2-amino-2-(1-(2-(4-chloro-2′-fluoro-5′-hydroxy-[1,1′-biphenyl]-2-yl)ethyl)piperidin-4-yl)-1-(4-(2-(ethylthio)-4-fluorobenzyl)piperazin-1-yl)ethan-1-one] | – | – | S (EC99≤12.5 μM) | S (EC99≤12.5 μM) | S (EC99≤12.5 μM) | S (EC99≤12.5 μM) | S (EC99≤12.5 μM)
3 | CCSc1cc(F)ccc1CN1CCN(C(=O)[C@H](N)C2CCN(CCc3cc(Cl)ccc3-c3cccc(O)c3Cl)CC2)CC1 [Example 616, (R)-2-amino-2-(1-(2-(2′,4-dichloro-3′-hydroxy-[1,1′-biphenyl]-2-yl)ethyl)piperidin-4-yl)-1-(4-(2-(ethylthio)-4-fluorobenzyl)piperazin-1-yl)ethan-1-one] | – | – | S (EC99≤12.5 μM) | S (EC99≤12.5 μM) | S (EC99≤12.5 μM) | S (EC99≤12.5 μM) | S (EC99≤12.5 μM)
4 | CSc1ccccc1CN1CCN(C(=O)[C@H](N)C2CCN(CCc3cc(Cl)ccc3-c3cc(O)cc(F)c3)CC2)CC1 [Example 617, (R)-2-amino-2-(1-(2-(4-chloro-3′-fluoro-5′-hydroxy-[1,1′-biphenyl]-2-yl)ethyl)piperidin-4-yl)-1-(4-(2-(methylthio)benzyl)piperazin-1-yl)ethan-1-one] | – | – | S (EC99≤12.5 μM) | S (EC99≤12.5 μM) | S (EC99≤12.5 μM) | S (EC99≤12.5 μM) | S (EC99≤12.5 μM)
5 | CSc1ccccc1CN1CCN(C(=O)[C@H](N)C2CCN(CCc3cc(Cl)ccc3-c3cc(O)ccc3Cl)CC2)CC1 [Example 618, (R)-2-amino-2-(1-(2-(2′,4-dichloro-5′-hydroxy-[1,1′-biphenyl]-2-yl)ethyl)piperidin-4-yl)-1-(4-(2-(methylthio)benzyl)piperazin-1-yl)ethan-1-one] | – | – | S (EC99≤12.5 μM) | S (EC99≤12.5 μM) | S (EC99≤12.5 μM) | S (EC99≤12.5 μM) | S (EC99≤12.5 μM)
6 | CCSc1cc(F)ccc1CN1CCN(C(=O)[C@H](N)C2CCN(CCc3cc(Cl)ccc3-c3cc(O)ccc3Cl)CC2)CC1 [Example 619, (R)-2-amino-2-(1-(2-(2′,4-dichloro-5′-hydroxy-[1,1′-biphenyl]-2-yl)ethyl)piperidin-4-yl)-1-(4-(2-(ethylthio)-4-fluorobenzyl)piperazin-1-yl)ethan-1-one] | – | – | S (EC99≤12.5 μM) | S (EC99≤12.5 μM) | S (EC99≤12.5 μM) | S (EC99≤12.5 μM) | S (EC99≤12.5 μM)
7 | CCSc1ccc(O)cc1CN1CCN(C(=O)[C@H](N)C2CCN(CCc3cc(Cl)ccc3-c3cc(O)cc(F)c3)CC2)CC1 [Example 620, (R)-2-amino-2-(1-(2-(4-chloro-3′-fluoro-5′-hydroxy-[1,1′-biphenyl]-2-yl)ethyl)piperidin-4-yl)-1-(4-(2-(ethylthio)-5-hydroxybenzyl)piperazin-1-yl)ethan-1-one] | – | – | S (EC99≤12.5 μM) | S (EC99≤12.5 μM) | S (EC99≤12.5 μM) | S (EC99≤12.5 μM) | S (EC99≤12.5 μM)
8 | CCSc1ccc(O)cc1CN1CCN(C(=O)[C@H](N)C2CCN(CCc3cc(Cl)ccc3-c3cc(O)ccc3F)CC2)CC1 [Example 621, (R)-2-amino-2-(1-(2-(4-chloro-2′-fluoro-5′-hydroxy-[1,1′-biphenyl]-2-yl)ethyl)piperidin-4-yl)-1-(4-(2-(ethylthio)-5-hydroxybenzyl)piperazin-1-yl)ethan-1-one] | – | – | S (EC99≤12.5 μM) | S (EC99≤12.5 μM) | S (EC99≤12.5 μM) | S (EC99≤12.5 μM) | S (EC99≤12.5 μM)
9 | CCSc1ccc(O)cc1CN1CCN(C(=O)[C@H](N)C2CCN(CCc3cc(Cl)ccc3-c3cccc(O)c3Cl)CC2)CC1 [Example 622, Hydrochloride of (R)-2-amino-2-(1-(2-(2′,4-dichloro-3′-hydroxy-[1,1-biphenyl]-2-yl)ethyl)piperidin-4-yl)-1-(4-(2-(ethylthio)-5-hydroxybenzyl)piperazin-1-yl)ethan-1-one] | – | – | S (EC99≤12.5 μM) | S (EC99≤12.5 μM) | S (EC99≤12.5 μM) | S (EC99≤12.5 μM) | A (12.5 μM<EC99≤25 μM)
10 | CCSc1cc(F)ccc1CN1CCN(C(=O)[C@H](N)C2CCN(CCc3ccc(O)cc3-c3ccccc3)CC2)CC1 [Example 624, Hydrochloride of (R)-2-amino-1-(4-(2-(ethylthio)-4-fluorobenzyl)piperazin-1-yl)-2-(1-(2-(5-hydroxy-[1,1-biphenyl]-2-yl)ethyl)piperidin-4-yl)ethan-1-one] | – | – | C (100 μM<EC99) | B (25 μM<EC99≤100 μM) | B (25 μM<EC99≤100 μM) | B (25 μM<EC99≤100 μM) | B (25 μM<EC99≤100 μM)
11 | CCOc1cccc(F)c1CN1CCN(C(=O)[C@H](N)C2CCN(CCc3ccc(O)cc3-c3ccccc3)CC2)CC1 [Example 625, Hydrochloride of (R)-2-amino-1-(4-(2-ethoxy-6-fluorobenzyl)piperazin-1-yl)-2-(1-(2-(5-hydroxy-[1,1-biphenyl]-2-yl)ethyl)piperidin-4-yl)ethan-1-one] | – | – | C (100 μM<EC99) | C (100 μM<EC99) | C (100 μM<EC99) | A (12.5 μM<EC99≤25 μM) | A (12.5 μM<EC99≤25 μM)
